# Where two headings read alike, the source gives them in different places.
# Columns and labels:
# [1] = Method: The penetration studies were carried out using Franz chambers. Hamster skin (non-flank organ region) was clipped and appropriate size pieces then cut and mounted between the lower and upper Franz cell chambers. The lower and upper chambers (with the skin in between) were then securely clamped together. A small magnetic stir bar was placed in the bottom of each chamber, 80 μL of 100× sodium azide to a final concentration of 0.2% was added as an anti-microbial agent, then the lower chamber was filled with phosphate buffered saline (PBS). PBS is added until the level in the side arm is just level with the mounted skin, slightly inverting the cells as necessary to remove any air bubbles that might occur. The Franz chambers are then placed in the appropriate size heating blocks and allowed to stand overnight at room temperature. […] Similarly, 20-40 μL of a 1% test formulation was applied over 8-10 chambers. Four hundred μL of the receptor fluid from the lower chamber was removed at 2, 4, 6, 8, 24 and 50 hours and placed in a scintillation vial. This PBS was then replaced with 400 μL of fresh PBS.
# [2] = In vitro drug skin accumulation assay (tape-stripped skin after 50-hour diffusion); format: in vitro ADME, Hamster; settings: for % Skin Deposition: skin after tape stripping of stratum corneum
# Method: The penetration studies were carried out using Franz chambers.
# After the 50-hour receiver fluid sample was taken, the diffusion set-up was dismantled. The skin section was mounted on a board and the stratum corneum skin layer was removed by tape stripping (3M Magic Tape 810). The section of the remaining skin exposed to the receiver fluid was isolated, placed in a vial containing 1 ml of Beckman Tissue Solubilizer-450, shaken for 4 days, and the resulting solution was assayed for the radiolabeled drug.
# [3] = Ionization constants by potentiometric titration; format: physicochemical
# Method: Although Schiff base formation is possible at both amino groups, sufficient selectivity can be achieved under buffered conditions or by terminating the reaction at an appropriate time. […] Three constants were obtained: pK1=0.084, pK2=6.437, pK3=10.393. Mono-conjugated Schiff base was prepared by reaction with a selected aldehyde or ketone under controlled buffer conditions.
smiles,measurement,setting,value
"CC(C)c1ccc(C=NCCCC(N)(C(=O)O)C(F)F)cc1 (centres unmarked) [IPB-DFMO, 2-amino-2-difluoromethyl-5-[(4-isopropyl-benzylidene)-amino]-pentanoic acid]","Skin penetration, % of applied dose after 24 hr","[1]; hamster, 24 h, 1 % formulation",3.31 ± 0.98 % of applied dose
"COc1cc(C=NCCCC(N)(C(=O)O)C(F)F)ccc1O (centres unmarked) [V-DFMO, 2-amino-2-difluoromethyl-5-[(4-hydroxy-3-methoxy-benzylidene)-amino]-pentanoic acid]",Relative Deposition (fold increase over unconjugated DFMO),[2],1.2 fold
same,% Skin Deposition,[2],0.96 ± 0.6%
same,"Skin penetration, % of applied dose after 24 hr","[1]; hamster, 24 h, 1 % formulation",3.34 ± 1.97 % of applied dose
"Cc1cc(C)c(C=NCCCC(N)(C(=O)O)C(F)F)c(C)c1 (centres unmarked) [M-DFMO, 2-amino-2-difluoromethyl-5-[(2,4,6-trimethyl-benzylidene)-amino]-pentanoic acid]","Skin penetration, % of applied dose after 24 hr","[1]; hamster, 24 h, 1 % formulation",6.68 ± 1.68 % of applied dose
"CC(C=NCCCC(N)(C(=O)O)C(F)F)=Cc1ccccc1 (centres unmarked) [MCA-DFMO, 2-amino-2-difluoromethyl-5-(2-methyl-3-phenyl-allylideneamino)-pentanoic acid]",Relative Deposition (fold increase over unconjugated DFMO),[2],5.0 fold
same,% Skin Deposition,[2],4.00 ± 3.0%
same,"Skin penetration, % of applied dose after 24 hr","[1]; hamster, 24 h, 1 % formulation",3.28 ± 0.88 % of applied dose
"NC(CCCN=Cc1ccc2ccccc2c1)(C(=O)O)C(F)F (centres unmarked) [N-DFMO, 2-amino-2-difluoromethyl-5-[([…]aphthalene-2-ylmethylene)-amino]-pentanoic acid]","Skin penetration, % of applied dose after 24 hr",[1],3.91 ± 0.71 % of applied dose
"NC(CCCN=Cc1ccccc1)(C(=O)O)C(F)F (centres unmarked) [B-DFMO, 2-amino-5-(benzylidene-amino)-2-difluoromethyl-pentanoic acid]",Relative Deposition (fold increase over unconjugated DFMO),[2],7.4 fold
same,% Skin Deposition,[2],5.92 ± 4.0%
same,Initial Rate of Penetration,"[1]; hamster, 2 h, 1 % formulation",1.24 ± 1.16
same,Initial Rate of Penetration,"[1]; hamster, 4 h, 1 % formulation",1.65 ± 1.48
same,Initial Rate of Penetration,"[1]; hamster, 6 h, 1 % formulation",1.71 ± 1.50
same,Level of radiolabeled drug in the receptor fluid,"[1]; hamster, 24 h, 1 % formulation",10±1 % of the applied dose
same,"Skin penetration, % of applied dose after 24 hr","[1]; hamster, 24 h, 1 % formulation",9.63 ± 1.31 % of applied dose
same,Level of radiolabeled drug in the receptor fluid,"[1]; hamster, 50 h, 1 % formulation",16±3 % of the applied dose
"NCCC[C@](N)(C(=O)O)C(F)F [DFMO, α-Difluoromethylornithine]",Ionization constant pK1,[3],0.084
same,Ionization constant pK2,[3],6.437
same,Ionization constant pK3,[3],10.393
"COC(=O)C(N)(CCCN)C(F)F (centres unmarked) [DFMO-OMe, 2,5-diamino-2-difluoromethyl-pentanoic acid methyl ester]",Rate of Penetration,"[1]; hamster, 4 h, 1 % formulation",0.23 ± 0.18
same,Rate of Penetration,"[1]; hamster, 6 h, 1 % formulation",0.21 ± 0.16
same,Rate of Penetration,"[1]; hamster, 24 h, 1 % formulation",0.2 ± 0.13

# Reference: patent publication US7345192B2, “Reduction of hair growth” (The Gillette Company, priority 2005, dated 2008)
